Data reported in patent publication US20260335450A1, “TARGETED PROTEIN DEGRADATION THROUGH SITE-SPECIFIC RECRUITMENT OF UBIQUITIN LIGASE” (University of Pittsburgh - Of the Commonwealth System of …, priority 2023, published 2026).
Read-outs that look alike come from different tables or passages of the source. Residues, ends and D or L forms follow the SMILES beside them. *: point of attachment. Cbz = O=C(OCc1ccccc1)*

How the values were obtained:
MKP3 = conditions: cited from earlier work
DUSP1 = conditions: cited from earlier work
mCherry-EGFP-Y151TetF [1] = assay: Degradation mechanism: proteasome inhibitor pre-treatment; format: cell-based; conditions: 10 μM inhibitor, 4 h pre-incubation; then 10 μM sTCO-PEG2-CRBN overnight
Experimental: FIGS. 16A-16B. Degradation mechanism of sTCO-PEG2-CRBN. FIG. 16A) The degradation of mCherry-EGFP-Y151TetF was reduced when cells were pre-treated with proteasome inhibitor MG132 or epoxomicin, validating that sTCO-PEG2-CRBN induced degradation is mediated by the proteasome.
For mechanistic insight into sTCO-PEG2-CRBN degradation (FIG. 16) cells were transfected as described above. A 10 μM working solution of media containing either MG132 or epoxomicin was made by adding 1 μL of the respective proteasome inhibitor (10 mM in DMSO) into 999 μL of complete medium. Following removal of TetF, 200 μL of media supplemented with either MG132, epoxomicin, or DMSO was added to each well and the cells were incubated for 4 h. Next, a solution containing 50 μM of sTCO-PEG2-CRBN was made by adding 5 μL of sTCO-PEG2-CRBN (10 mM in DMSO) into 995 μL of complete medium. Following the allotted time for proteasome inhibitor incubation, 50 μL of 50 μM sTCO-PEG2-CRBN was added directly to each well, for a final volume of 250 μL and final concentration of 10 μM of sTCO-PEG2-CRBN. The cells were then incubated overnight at 37° C. with 5% CO2 before lysis and western blot analysis.

mCherry-EGFP-Y151TetF [2] = assay: Degradation mechanism: thalidomide-OH pretreatment, cereblon-mediated degradation; format: cell-based; conditions: pretreatment with 100 µM of Thal-OH, then sTCO-PEG2-CRBN
[3] = cited from earlier work
mCherry-EGFP-G134TetF = assay: In cellulo bioconjugation quantified with sTCO-CA and HaloTag; format: cell-based; conditions: sTCO-CA then HaloTag
Experimental: (§1) FIGS. 1A-1B. Experimental workflow for the quantification of bioconjugation to UAA-bearing proteins expressed in cells. Following expression of the POI bearing a UAA at any surface position (e.g., A-E), the FIG. 1A) sTCO-chloroalkane ligand or FIG. 1B) sTCO-E3 ligase ligand, is added to the media and undergoes a selective bioconjugation with the UAA. Excess ligand is washed away and cells are FIG. 1A) lysed or FIG. 1B) incubated with sTCO-chloroalkane then lysed. The lysate is incubated with HaloTag protein and the bioconjugation is quantified via western blot.
(§2) Before comparing the degradation of different mCherry-EGFP mutants, validating the extent of bioconjugation to TetF at each position was required. A method for quantifying in cellulo protein bioconjugation that utilizes a strained trans-cyclooctene chloroalkane (sTCO-CA) to react with TetF and subsequently dimerize with the self-labeling enzyme, HaloTag, was previously […]. Using this technique, the extent of bioconjugation mCherry-EGFP-I129TetF (~90%) and mCherry-EGFP-G134TetF (~55%, FIG. 4D) was quantified. Bioconjugation to two new mCherry-EGFP-TetF mutants using the same method was also quantified (FIG. 7). […] By determining the extent of bioconjugation to TetF mutants across the surface of mCherry-EGFP, variations in degradation due to incomplete bioconjugation could be evaluated. […]

mCherry-EGFP-I129TetF = assay: as above; format: cell-based; conditions: sTCO-CA then HaloTag
Experimental: as §1, §2

## O=C1C(=Cc2ccccc2)C(NC2CCCCC2)c2ccccc21 (stereo not drawn) [BCI]
MKP3
  inhibition of MKP3: known allosteric inhibitor
DUSP1
  inhibition of DUSP1: inhibits DUSP1

## CC(C)C[C@@H](C=O)NC(=O)[C@H](CC(C)C)NC(=O)[C@H](CC(C)C)NC(=O)OCc1ccccc1 [MG132] (Cbz-Leu-Leu-Leu-aldehyde)
mCherry-EGFP-Y151TetF [1]
  effect of proteasome inhibitor pre-treatment on sTCO-PEG2-CRBN induced degradation: reduced

## O=C1CCC(N2C(=O)c3cccc(O)c3C2=O)C(=O)N1 (stereo not drawn) [Thal-OH, thalidomide-OH]
mCherry-EGFP-Y151TetF [2]
  effect of thalidomide-OH pretreatment on sTCO-PEG2-CRBN degradation: reduced degradation

## OC1CC/C=C\CCC1 (stereo not drawn) [a]
[3]; Aqueous solvent, ax iso
  Second-order rate constant: 80200 M⁻¹ s⁻¹
[3]; Aqueous solvent, eq iso
  Second-order rate constant: 22600 M⁻¹ s⁻¹
[3]; Mixture (Org water) 90:10
  Second-order rate constant: 2000 (90:10)^Ref 5 M^−1s^−1
[3]; Organic solvent
  Second-order rate constant: 1140^Ref 5 M^−1s^−1

## OCC1[C@@H]2C/C=C\CCC[C@@H]12 (stereo partly drawn) [b]
[3]; Aqueous solvent
  Second-order rate constant: 3300000^Ref 2 M^−1s^−1
[3]; Organic solvent
  Second-order rate constant: 22000^Ref 3 M^−1s^−1

## OCC1O[C@H]2C/C=C\CCC[C@H]2O1 (stereo partly drawn) [c]
[3]; Aqueous solvent, anti iso
  Second-order rate constant: 318000 M⁻¹ s⁻¹
[3]; Aqueous solvent, syn iso
  Second-order rate constant: 366000 M⁻¹ s⁻¹
[3]; Mixture (Org water) 55:45
  Second-order rate constant: 167000 (55:45)^Ref 3 M^−1s^−1

## OCC1[C@@H]2CCC#CCC[C@@H]12 (stereo partly drawn) [d]
[3]; Mixture (Org water) 55:45
  Second-order rate constant: 1245 (55:45)^Ref 6 M^−1s^−1
[3]; Organic solvent
  Second-order rate constant: 45^Ref 4 M^−1s^−1

## CC[C@H](C)[C@H](NC(=O)[C@H]([C@@H](C)CC)N(C)C(C)=O)C(=O)N[C@H](C(=O)N[C@@H](CC(C)C)C(=O)[C@@]1(C)CO1)[C@@H](C)O [epoxomicin]
mCherry-EGFP-Y151TetF [1]
  effect of proteasome inhibitor pre-treatment on sTCO-PEG2-CRBN induced degradation: reduced

## O=C(O)CC1CC2C=CC1C2 (stereo not drawn) [h]
[3]; Aqueous solvent
  Second-order rate constant: 1.9^Ref 9 M^−1s^−1

## C=Cc1ccccc1 [j]
[3]; Mixture (Org water) 50:50
  Second-order rate constant: 0.05 (50:50)^Ref 11 M^−1s^−1

## C=CCSC[C@H](N)C(=O)O [m]
[3]; Mixture (Org water) 50:50
  Second-order rate constant: 0.002 (50:50)^Ref 13 M^−1s^−1

## O=C(NCCOCCOCCCCCCCl)OCC1C2CC/C=C/CCC21 (stereo not drawn) [sTCO-CA]
mCherry-EGFP-G134TetF
  extent of bioconjugation: ~ 55%
mCherry-EGFP-I129TetF
  extent of bioconjugation: ~ 90%
